In test [1] the test system is Moloney murine leukemia virus (MoLV). Put plainly: in vitro XC plaque assay (inhibition of virus plaque growth in mouse SC-1 cells / rat XC cells). The settings on record: SC1, concentration giving a 50% inhibition of virus plaque growth, compounds added 2 hours prior to virus, read-out: IC₅₀. The format is cell-based. Here is the method:
The ability of the furan ketone derivatives of this invention to act as anti-retroviral agents can be demonstrated by their ability to inhibit the growth and replication of murine leukemia virus, an oncogenic retrovirus, as determined by an in vitro XC plaque assay. This assay was performed according to the method of Rowe et al. (Virology, 1970, 42, 1136-39) as previously described by L. Hsu, et al. (J. Virological Methods, 1980, 1, 167-77) and T. L. Bowlin and M. R. Proffitt (J. Interferon Res., 1983, 3(1), 19-31). Mouse SC-1 cells (fibroblast) (10⁵) were seeded into each well of 6-well cluster plates (Costar #3506) in 4 ml Minimum Essential Medium (MEM) with 10% Fetal Calf Serum (FCS). Following an 18 hour incubation period (37°C), Moloney murine leukemia virus (MoLV) was applied at a predetermined titer to give optimal (i.e. countable) numbers of virus plaques. Compounds were added 2 hours prior to addition of the virus. Three days later the culture medium was removed, the SC-1 cell monolayers were exposed to UV irradiation (1800 ergs), and rat XC cells (10⁶) were seeded into each well in 4 ml MEM. Following an additional 3 day incubation (37°C), these cells were fixed with ethyl alcohol (95%) and stained with 0.3% crystal violet. Plaques were then counted under low magnification. The antiviral activities of various compounds of this invention are tabulated in Table I in terms of the IC₅₀, i,e, the concentration giving a 50% inhibition of virus plaque growth.

The test system of the next test is HIV1GB8 strain of HIV-1. The experiment in a line: anti-HIV activity in T-cells (JM cells): syncytial cell count and p24 antigen after 4 days. The format is cell-based. The settings on record: for SYNCYTIAL COUNT: untreated 29; for P24 ANTIGEN: untreated 801; for inhibition at 15 µg/mL / inhibition at 30 µg/mL: Human immunodeficiency virus 1, T-cell, 96 h, inhibition of syncytial count. The procedure:
To further confirm the antiretroviral activity of these compounds, methyl 5-tetradecyloxy-2-furyl ketone and methyl 5-tetradecylthiomethyl-2-furyl ketone were evaluated for activity against HIV. Following overnight pretreatment of T-cells (JM cells) with the HIV1GB8 strain of HIV-1, the test compounds were added to the cell cultures at concentrations of 15 and 30 µg/ml. After 4 days the number of synctial cells in the cell culture and the amount of p24 antigen, also a measure of viral replication, were determined.

The structures appear in SMILES notation. Converted amounts (≈) assume the structure as drawn.

As for `CC(=O)c1ccc(OCCC(C)CCCC(C)CCCC(C)C)o1` (centres unmarked) [Methyl 5-(3,7,11-trimethyldodecyloxy)-2-furyl ketone], the IC50 in test [1] is under 1 µg/mL. In the case of `CCCCCCCC/C=C\CCCCCCCCOc1ccc(C(C)=O)o1` [Methyl 5-(cis-9-octadecenyl)oxy-2-furyl ketone], the IC50 in test [1] is under 1 µg/mL. Turning to `CCCCCCCCCCCCCCSCc1ccc(C(C)=O)o1` [Methyl 5-tetradecylthiomethyl-2-furyl ketone], in the test with HIV1GB8 strain of HIV-1 (15 µg/ml), the “SYNCYTIAL COUNT” value stood at 3, the “P24 ANTIGEN” value came to 152 pg X 10³/ml and testing at 15 µg/mL gave an inhibition of 90%. In the test on HIV1GB8 strain of HIV-1 (30 µg/ml), the “SYNCYTIAL COUNT” value came out at 0 and the inhibition (usually the share of the control response that was lost under treatment) at 30 µg/mL was 100%. Further, the IC50 in test [1] stood at 1 µg/mL (≈ 2.84 µM). `CCCCCCCCCCCCCCCOc1ccc(C(C)=O)o1` [Methyl 5-pentadecyloxy-2-furyl ketone]: the IC50 in test [1] lay in the range of 5 to 10 µg/mL (≈ 14.9 to 29.7 µM).

For `CCCCCCCCCCCCCCOc1ccc(C(=O)CCCCCC)o1` [Hexyl 5-tetradecyloxy-2-furyl ketone], in test [1], the IC50 lay in the range of 5 to 10 µg/mL (≈ 12.7 to 25.5 µM).

Take `CCCCCCCCCCCCCCc1ccc(C(C)=O)o1` [Methyl 5-tetradecyl-2-furyl ketone]: in test [1], the IC50 lay in the range of 1 to 10 µg/mL (≈ 3.26 to 32.6 µM). Consider `CCCCCCCCCCCCCCOc1ccc(C(C)=O)o1` [Methyl 5-tetradecyloxy-2-furyl ketone], for which, in the test with HIV1GB8 strain of HIV-1 (15 µg/ml), the “SYNCYTIAL COUNT” value came to 19, the “P24 ANTIGEN” value is given as 450 pg X 10³/ml and 15 µg/mL produced 34% inhibition. For the same compound, in the test on HIV1GB8 strain of HIV-1 (30 µg/ml), the “SYNCYTIAL COUNT” value is reported as 0 and the inhibition at 30 µg/mL is 100%. In addition, the IC50 in test [1] stood at 4 µg/mL (≈ 12.4 µM). With `CCCCCCCCCCCCCCCCCCOc1ccc(C(C)=O)o1` [Methyl 5-octadecyloxy-2-furyl ketone], the IC50 in test [1] is over 10 µg/mL.

In the case of `CCCCCCCCCCCCCCOc1ccc(C(=O)C(C)(C)C)o1` [t-Butyl 5-tetradecyloxy-2-furyl ketone], the IC50 in test [1] lay in the range of 5 to 10 µg/mL (≈ 13.7 to 27.4 µM). On to `CCCCCCCCCCCCCCCCOc1ccc(C(C)=O)o1` [Methyl 5-hexadecyloxy-2-furyl ketone], for which, in test [1], the IC50 was in the range of 1 to 10 µg/mL (≈ 2.85 to 28.5 µM). On the same count and under the same terms, the same measure for `CCCCCCCCCCOc1ccc(C(C)=O)o1` [Methyl 5-decyloxy-2-furyl ketone]: 1 to 10 µg/mL (≈ 3.75 to 37.5 µM); for `CCCCCCCCCCCCOc1ccc(C(C)=O)o1` [Methyl 5-dodecyloxy-2-furyl ketone]: 1 to 10 µg/mL (≈ 3.4 to 34 µM).

Take `CCCCCCCCCCCCc1ccc(C(C)=O)o1` [Methyl 5-dodecyl-2-furyl ketone]: in test [1], the IC50 is 5 to 10 µg/mL (≈ 18 to 35.9 µM). As to `CCCCCCCCCCCCC(C)COc1ccc(C(C)=O)o1` (centres unmarked) [Methyl 5-(2-methyltetradecyloxy)-2-furyl ketone], in test [1], the IC50 was in the range of 1 to 5 µg/mL (≈ 2.97 to 14.9 µM). Still for that read-out and setting: next, `CCCCCCCCCCCCCCOCc1ccc(C(C)=O)o1` [Methyl 5-tetradecyloxymethyl-2-furyl ketone]: 1 to 10 µg/mL (≈ 2.97 to 29.7 µM); `CCCCCCCCCCCCCCSc1ccc(C(C)=O)o1` [Methyl 5-tetradecylthio-2-furyl ketone]: 1 to 10 µg/mL (≈ 2.95 to 29.5 µM).

The record behind these values is patent publication EP0374886A2, “Antiretroviral furan ketones” (MERRELL DOW PHARMACEUTICALS INC., priority 1988, dated 1990).
